Measured values from PMC9127750, “Structure-based design of CDC42 effector interaction inhibitors for the treatment of cancer” (Cell reports, 2022).

Test system: WM3248 melanoma cells, 486 antibodies
Assay: Reverse phase protein arrays (RPPA);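 as to RPPA AceCS1.R.V: ratio of treated to vehicle (0 µM) normalized linear protein signal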;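 as to RPPA Akt1 pS473.R.V: ratio of treated to vehicle (0 µM) normalized linear protein signal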;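 as to RPPA Akt1.R.V: ratio of treated to vehicle (0 µM) normalized linear protein signal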;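 as to RPPA Ambra1 pS52.R.C: ratio of treated to vehicle (0 µM) normalized linear protein signal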;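 as to RPPA Atg5.R.C: ratio of treated to vehicle (0 µM) normalized linear protein signal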;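 as to RPPA Bim.R.V: ratio of treated to vehicle (0 µM) normalized linear protein signal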
Format: cell-based, Human
Details: 10 uM, Average
From the text: Pellets were snap frozen in liquid nitrogen and shipped to MD Anderson Cancer Center core RPPA facility for RPPA analysis (Table S5). Three biological replicates for each sample were generated.
Nomenclatures on the RPPA heatmaps: name_of_antibody.species_of_antibody.status_of_antibody. V - antibody validated; C - validation of antibody in progress; Q - antibody nonspecific; E – under evaluation; antibodies raised in M - mouse, G - goat, R - rabbit, or T - rat.

With CN(C)c1cccc(Nc2cc(-c3ccccc3)nc(C3CCNCC3)n2)c1 [ARN22089, N1,N1-dimethyl-N3-(6-phenyl-2-(piperidin-4-yl)pyrimidin-4-yl)benzene-1,3-diamine] the “RPPA ATM.R.V” value was 0.927, the “RPPA ATM_pS1981.R.V” value was 1.057 and the “RPPA ATP5A.M.C” value was 0.974. For the same compound, the “RPPA ATP5H.R.V” value was 1.098, the “RPPA ATR.R.V” value was 1.026 and the “RPPA ATRX.R.C” value was 0.906. For the same compound, the “RPPA ATR_pS428.R.C” value was 0.986, the “RPPA AceCS1.R.V” value was 0.979 and the “RPPA Akt1.R.V” value was 0.907. For the same compound, the “RPPA Akt1_pS473.R.V” value was 0.954, the “RPPA Akt2.R.V” value was 0.941 and the “RPPA Akt2_pS474.R.C” value was 1.021. The “RPPA Akt.R.V” value was 0.867, the “RPPA Akt_pT308.R.V” value was 0.981 and the “RPPA Ambra1_pS52.R.C” value was 1.030. For the same compound, the “RPPA Atg3.R.V” value was 0.962, the “RPPA Atg4B.R.C” value was 0.898 and the “RPPA Atg5.R.C” value was 0.891. For the same compound, the “RPPA Atg7.R.V” value was 0.851, the “RPPA Aurora.A.R.C” value was 1.056 and the “RPPA Aurora.ABC_pT288_pT232_pT198.R.C” value was 1.162. For the same compound, the “RPPA Axl.R.V” value was 0.783, the “RPPA B7.H4.R.C” value was 0.993 and the “RPPA B.Raf.R.C” value was 0.898. For the same compound, the “RPPA B.Raf_pS445.R.V” value was 0.944, the “RPPA BAP1.M.V” value was 0.990 and the “RPPA BCL2A1.R.V” value was 1.335. The “RPPA BMK1.Erk5_pT218_Y220.R.V” value was 0.987, the “RPPA BRCA1.M.C” value was 1.014 and the “RPPA BRD4.R.V” value was 1.015. For the same compound, the “RPPA Bax.R.V” value was 0.964, the “RPPA Bcl2.R.C” value was 1.027 and the “RPPA Bcl.xL.R.V” value was 1.001. For the same compound, the “RPPA BiP.GRP78.M.C” value was 1.017, the “RPPA Bid.R.C” value was 0.983 and the “RPPA Bim.R.V” value was 0.937. The “RPPA DNMT1.R.V” value was 1.022, the “RPPA DRP1.R.V” value was 0.982 and the “RPPA DUSP4.R.V” value was 0.898. The “RPPA DUSP6.R.C” value was 0.937, the “RPPA Dvl3.R.V” value was 0.985 and the “RPPA E.Cadherin.R.V” value was 1.055. The “RPPA EGFR.R.V” value was 0.930, the “RPPA EGFR_pY1068.R.C” value was 1.016 and the “RPPA EGFR_pY1173.R.V” value was 0.991. For the same compound, the “RPPA EMA.M.C” value was 1.130, the “RPPA ENY2.M.C” value was 1.020 and the “RPPA ER.a.R.V” value was 0.940. The “RPPA ER.a_pS118.R.V” value was 0.975, the “RPPA ERCC5.R.C” value was 0.879 and the “RPPA EVI1.R.V” value was 1.063. For the same compound, the “RPPA Elk1_pS383.R.C” value was 0.992, the “RPPA Enolase.1.R.V” value was 0.999 and the “RPPA EphA2.R.V” value was 1.002. For the same compound, the “RPPA EphA2_pS897.R.C” value was 1.008, the “RPPA EphA2_pY588.R.C” value was 0.983 and the “RPPA Erk5.R.V” value was 0.909. For the same compound, the “RPPA FABP5.R.C” value was 1.006, the “RPPA FAK.R.C” value was 0.977 and the “RPPA FAK_pY397.R.V” value was 1.056. The “RPPA FANCD2.R.V” value was 1.010, the “RPPA FASN.R.V” value was 0.855 and the “RPPA FGF.basic.R.C” value was 0.941. The “RPPA FN14.R.C” value was 1.032, the “RPPA FOXM1.R.V” value was 1.022 and the “RPPA FOXO3.R.V” value was 1.030. The “RPPA FRS2.alpha_pY196.R.V” value was 1.286, the “RPPA FTO.R.V” value was 1.004 and the “RPPA Fibronectin.R.V” value was 0.843. The “RPPA FoxO3a_pS318_S321.R.C” value was 1.028, the “RPPA G6PD.R.V” value was 1.065 and the “RPPA GATA3.M.V” value was 1.016. The “RPPA GATA6.R.V” value was 1.046, the “RPPA GCLC.R.C” value was 0.968 and the “RPPA GCLM.R.V” value was 1.026. For the same compound, the “RPPA GCN5L2.R.V” value was 0.929, the “RPPA GGPS1.M.V” value was 1.006 and the “RPPA GRB2.R.V” value was 0.910. The “RPPA GRB7.R.V” value was 0.970, the “RPPA GSK.3B.R.C” value was 0.917 and the “RPPA Gab2.R.V” value was 0.984. The “RPPA Gli1.R.C” value was 1.007, the “RPPA Gli3.R.C” value was 0.971 and the “RPPA Glucocorticoid.Receptor.R.V” value was 1.081. For the same compound, the “RPPA Glutamate.D1.2.R.V” value was 1.054, the “RPPA Glutaminase.R.C” value was 0.935 and the “RPPA Granzyme.B.R.V” value was 0.974. The “RPPA Grp75.R.C” value was 1.080, the “RPPA Gys.R.V” value was 0.978 and the “RPPA Gys_pS641.R.V” value was 1.007. The “RPPA H2AX_pS139.R.C” value was 0.966, the “RPPA HER2.M.V” value was 1.022 and the “RPPA HER3.R.V” value was 0.985. The “RPPA HER3_pY1289.R.C” value was 0.975, the “RPPA HES1.R.V” value was 0.990 and the “RPPA Heregulin.R.V” value was 0.902. The “RPPA X4E.BP1.R.V” value was 0.842, the “RPPA X4E.BP1_pS65.R.V” value was 1.009 and the “RPPA X4E.BP1_pT37_T46.R.V” value was 1.014. The “RPPA X14.3.3.zeta.R.V” value was 1.029, the “RPPA X14.3.3εM.C” value was 1.000 and the “RPPA X53BP1.R.V” value was 0.942. The “RPPA b.Actin.R.C” value was 1.019, the “RPPA b.Catenin_pT41_S45.R.V” value was 1.005 and the “RPPA c.Abl.R.V” value was 1.077. The “RPPA c.Abl_pY412.R.C” value was 0.962, the “RPPA c.IAP2.R.C” value was 1.022 and the “RPPA eIF4E.R.V” value was 0.979. The “RPPA eIF4E_pS209.R.V” value was 1.021, the “RPPA eIF4G.R.C” value was 0.929 and the “RPPA level HLA.DQA1.R.V” value was 1.033. The “RPPA level HLA.DR.DP.DQ.DX.R.C” value was 0.982, the “RPPA level HMHA1.R.V” value was 0.975 and the “RPPA level HSP27.M.C” value was 1.029. For the same compound, the “RPPA level HSP27_pS82.R.V” value was 0.988, the “RPPA level HSP70.R.C” value was 0.942 and the “RPPA level Hexokinase.II.R.V” value was 0.989. The “RPPA level Hif.1αR.C” value was 0.977, the “RPPA level Histone.H3.R.V” value was 0.887 and the “RPPA level IDO.R.C” value was 1.004. The “RPPA level IGF1R_pY1135_Y1136.R.V” value was 0.943, the “RPPA level IGFBP2.R.V” value was 0.781 and the “RPPA level IGFBP3.M.V” value was 0.976. The “RPPA level IGFRb.R.C” value was 0.929, the “RPPA level IL.6.R.C” value was 0.956 and the “RPPA level IMP3.R.C” value was 1.001. The “RPPA level IR.b.R.C” value was 1.049, the “RPPA level IRF.1.R.V” value was 0.861 and the “RPPA level IRS1.R.V” value was 0.974. For the same compound, the “RPPA level IRS2.R.C” value was 0.998, the “RPPA level JAB1.M.C” value was 1.013 and the “RPPA level JNK2.R.V” value was 1.853. For the same compound, the “RPPA level JNK_pT183_Y185.R.C” value was 0.981, the “RPPA level Jagged1.R.V” value was 0.989 and the “RPPA level Jak2.R.V” value was 0.961. For the same compound, the “RPPA level KAP1.R.V” value was 0.913, the “RPPA level KEAP1.R.V” value was 0.975 and the “RPPA level LC3A.B.R.C” value was 0.954. The “RPPA level LCN2.R.V” value was 1.252, the “RPPA level LDHA.R.C” value was 1.005 and the “RPPA level LRP6_pS1490.R.V” value was 0.929. The “RPPA level Lck.R.V” value was 0.974, the “RPPA level MACC1.R.V” value was 1.049 and the “RPPA level MAPK_pT202_Y204.R.C” value was 0.956. For the same compound, the “RPPA level MCT4.R.V” value was 0.820, the “RPPA level MDM2_pS166.R.V” value was 1.004 and the “RPPA level MEK1.R.V” value was 1.435. The “RPPA level MEK1_pS217_S221.R.V” value was 0.992, the “RPPA level MEK2.R.V” value was 0.978 and the “RPPA level MERIT40.R.C” value was 0.950. For the same compound, the “RPPA level MERIT40_pS29.R.V” value was 1.020, the “RPPA level METTL3.R.V” value was 1.051 and the “RPPA level MIF.R.C” value was 1.063. The “RPPA level MIG6.R.V” value was 1.022, the “RPPA level MLH1.M.V” value was 0.972 and the “RPPA level MLKL.R.V” value was 0.916. For the same compound, the “RPPA level MMP2.R.V” value was 0.984, the “RPPA level MMP14.R.V” value was 1.009 and the “RPPA level MRAP.R.C” value was 1.048. The “RPPA level MSH2.R.C” value was 1.016, the “RPPA level MSH6.R.C” value was 0.997 and the “RPPA level MSI2.R.C” value was 0.997.
